Laboratory results published in US10670605B2, “Cysteine reactive probes and uses thereof” (The Scripps Research Institute, priority 2015, dated 2020).
Blank lines part the entries; values can stand above or below the compound they belong to.

What was measured:
Experiment in all cases: Competitive isoTOP-ABPP in situ (fragment-treated cells)
Assay type in all cases: cell-based
[1] = biological target: T1, cysteines in MDA-MB-231 and Ramos cells (Homo sapiens, UniProt Q6ICB0); conditions: for isoTOP-ABPP reactivity Q6ICB0_C108 DESII: 231
T1 sequence (Q6ICB0 1-168): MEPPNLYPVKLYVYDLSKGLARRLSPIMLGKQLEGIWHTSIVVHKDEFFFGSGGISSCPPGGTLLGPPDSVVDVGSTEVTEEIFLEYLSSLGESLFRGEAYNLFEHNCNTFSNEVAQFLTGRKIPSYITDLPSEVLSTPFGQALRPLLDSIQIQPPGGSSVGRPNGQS

[2] = biological target: cysteines in MDA-MB-231 and Ramos cells (Homo sapiens, UniProt Q9UJW0)
[3] = biological target: T2, cysteines in MDA-MB-231 and Ramos cells (Homo sapiens, UniProt Q96P48); conditions: 200 μM, insitu, 231
T2 sequence (Q96P48 1-1450): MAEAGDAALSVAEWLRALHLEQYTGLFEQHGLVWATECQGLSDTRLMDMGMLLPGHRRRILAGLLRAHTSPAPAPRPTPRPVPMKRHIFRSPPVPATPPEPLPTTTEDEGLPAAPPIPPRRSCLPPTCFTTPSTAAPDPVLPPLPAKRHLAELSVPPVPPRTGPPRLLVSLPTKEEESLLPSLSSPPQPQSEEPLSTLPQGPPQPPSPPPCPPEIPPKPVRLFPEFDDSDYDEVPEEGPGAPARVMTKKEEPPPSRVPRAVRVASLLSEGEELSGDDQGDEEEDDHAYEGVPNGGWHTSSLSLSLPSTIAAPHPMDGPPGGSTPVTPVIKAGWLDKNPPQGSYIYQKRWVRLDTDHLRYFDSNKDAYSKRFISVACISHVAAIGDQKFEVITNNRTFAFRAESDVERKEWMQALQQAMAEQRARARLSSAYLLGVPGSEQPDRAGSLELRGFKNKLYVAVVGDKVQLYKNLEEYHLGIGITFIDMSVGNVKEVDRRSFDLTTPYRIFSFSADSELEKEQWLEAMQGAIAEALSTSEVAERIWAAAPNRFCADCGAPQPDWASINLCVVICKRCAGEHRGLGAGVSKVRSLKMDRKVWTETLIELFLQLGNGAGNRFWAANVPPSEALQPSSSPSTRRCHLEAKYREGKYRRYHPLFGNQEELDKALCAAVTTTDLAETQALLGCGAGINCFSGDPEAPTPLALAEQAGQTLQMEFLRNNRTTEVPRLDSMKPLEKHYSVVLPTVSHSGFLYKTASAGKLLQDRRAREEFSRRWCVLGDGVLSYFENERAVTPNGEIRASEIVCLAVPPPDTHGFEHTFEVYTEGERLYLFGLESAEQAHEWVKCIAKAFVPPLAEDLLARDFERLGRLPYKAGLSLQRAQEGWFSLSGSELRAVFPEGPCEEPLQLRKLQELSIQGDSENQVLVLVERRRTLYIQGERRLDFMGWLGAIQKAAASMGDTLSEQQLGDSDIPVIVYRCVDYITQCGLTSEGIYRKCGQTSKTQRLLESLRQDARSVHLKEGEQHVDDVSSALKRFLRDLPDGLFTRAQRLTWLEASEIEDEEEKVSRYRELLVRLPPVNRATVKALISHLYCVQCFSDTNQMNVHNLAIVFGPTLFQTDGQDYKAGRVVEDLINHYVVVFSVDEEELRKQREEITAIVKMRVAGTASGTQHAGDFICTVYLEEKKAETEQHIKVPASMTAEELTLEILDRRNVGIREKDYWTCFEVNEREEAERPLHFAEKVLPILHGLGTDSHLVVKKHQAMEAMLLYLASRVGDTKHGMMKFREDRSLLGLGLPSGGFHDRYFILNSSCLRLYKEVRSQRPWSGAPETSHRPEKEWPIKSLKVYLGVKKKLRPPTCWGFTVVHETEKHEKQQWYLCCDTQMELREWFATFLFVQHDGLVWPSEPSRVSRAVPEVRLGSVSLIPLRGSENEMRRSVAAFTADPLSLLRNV

[4] = biological target: T3, cysteines in MDA-MB-231 and Ramos cells (Homo sapiens, UniProt P24468)
T3 sequence (P24468 1-414): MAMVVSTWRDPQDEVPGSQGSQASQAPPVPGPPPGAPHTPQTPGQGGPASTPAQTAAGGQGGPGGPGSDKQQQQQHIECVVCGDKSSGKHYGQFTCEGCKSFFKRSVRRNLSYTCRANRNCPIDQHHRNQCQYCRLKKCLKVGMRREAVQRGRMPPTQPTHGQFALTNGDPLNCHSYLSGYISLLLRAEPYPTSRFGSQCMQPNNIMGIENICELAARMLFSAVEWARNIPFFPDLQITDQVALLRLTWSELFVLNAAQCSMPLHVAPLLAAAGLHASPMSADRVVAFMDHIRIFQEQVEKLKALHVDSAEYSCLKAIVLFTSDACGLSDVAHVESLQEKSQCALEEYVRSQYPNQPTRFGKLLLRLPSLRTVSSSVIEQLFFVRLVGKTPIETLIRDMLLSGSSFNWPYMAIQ

[5] = biological target: T4, cysteines in MDA-MB-231 and Ramos cells (Homo sapiens, UniProt Q13158); conditions: 200 μM, insitu, 231
T4 sequence (Q13158 1-208): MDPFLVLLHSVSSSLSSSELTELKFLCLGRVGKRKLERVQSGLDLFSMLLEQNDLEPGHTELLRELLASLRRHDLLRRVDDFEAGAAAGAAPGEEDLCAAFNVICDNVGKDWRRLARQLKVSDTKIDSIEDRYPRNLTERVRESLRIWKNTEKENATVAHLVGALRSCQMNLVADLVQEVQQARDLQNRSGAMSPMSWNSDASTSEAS

[6] = biological target: T5, cysteines in MDA-MB-231 and Ramos cells (Homo sapiens, UniProt P35754)
T5 sequence (P35754 1-106): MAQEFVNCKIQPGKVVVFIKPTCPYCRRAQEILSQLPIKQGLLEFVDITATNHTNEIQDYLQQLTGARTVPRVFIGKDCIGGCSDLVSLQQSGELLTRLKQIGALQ

[7] = biological target: cysteines in MDA-MB-231 and Ramos cells (Homo sapiens, UniProt Q9Y6G9)
[8] = biological target: cysteines in MDA-MB-231 and Ramos cells (Homo sapiens, UniProt Q15149)
[9] = biological target: cysteines in MDA-MB-231 and Ramos cells (Homo sapiens, UniProt P45984)
[10] = biological target: cysteines in MDA-MB-231 and Ramos cells (Homo sapiens, UniProt P52948); conditions: 200 μM, insitu, 231

Chain of cysteines in MDA-MB-231 and Ramos cells (Homo sapiens, UniProt P45984) (P45984 whole entry): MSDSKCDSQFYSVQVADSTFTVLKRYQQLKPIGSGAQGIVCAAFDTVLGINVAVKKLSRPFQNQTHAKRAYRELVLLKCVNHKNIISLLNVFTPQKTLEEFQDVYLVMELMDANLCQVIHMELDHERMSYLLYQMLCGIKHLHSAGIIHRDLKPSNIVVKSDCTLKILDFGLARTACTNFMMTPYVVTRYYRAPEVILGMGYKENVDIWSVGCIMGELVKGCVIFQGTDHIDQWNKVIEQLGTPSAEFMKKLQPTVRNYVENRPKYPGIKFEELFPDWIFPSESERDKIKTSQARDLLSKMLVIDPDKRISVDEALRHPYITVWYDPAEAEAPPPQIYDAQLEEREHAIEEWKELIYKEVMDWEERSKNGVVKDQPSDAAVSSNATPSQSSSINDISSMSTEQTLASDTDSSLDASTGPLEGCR
Chain of cysteines in MDA-MB-231 and Ramos cells (Homo sapiens, UniProt Q15149) (Q15149 whole entry): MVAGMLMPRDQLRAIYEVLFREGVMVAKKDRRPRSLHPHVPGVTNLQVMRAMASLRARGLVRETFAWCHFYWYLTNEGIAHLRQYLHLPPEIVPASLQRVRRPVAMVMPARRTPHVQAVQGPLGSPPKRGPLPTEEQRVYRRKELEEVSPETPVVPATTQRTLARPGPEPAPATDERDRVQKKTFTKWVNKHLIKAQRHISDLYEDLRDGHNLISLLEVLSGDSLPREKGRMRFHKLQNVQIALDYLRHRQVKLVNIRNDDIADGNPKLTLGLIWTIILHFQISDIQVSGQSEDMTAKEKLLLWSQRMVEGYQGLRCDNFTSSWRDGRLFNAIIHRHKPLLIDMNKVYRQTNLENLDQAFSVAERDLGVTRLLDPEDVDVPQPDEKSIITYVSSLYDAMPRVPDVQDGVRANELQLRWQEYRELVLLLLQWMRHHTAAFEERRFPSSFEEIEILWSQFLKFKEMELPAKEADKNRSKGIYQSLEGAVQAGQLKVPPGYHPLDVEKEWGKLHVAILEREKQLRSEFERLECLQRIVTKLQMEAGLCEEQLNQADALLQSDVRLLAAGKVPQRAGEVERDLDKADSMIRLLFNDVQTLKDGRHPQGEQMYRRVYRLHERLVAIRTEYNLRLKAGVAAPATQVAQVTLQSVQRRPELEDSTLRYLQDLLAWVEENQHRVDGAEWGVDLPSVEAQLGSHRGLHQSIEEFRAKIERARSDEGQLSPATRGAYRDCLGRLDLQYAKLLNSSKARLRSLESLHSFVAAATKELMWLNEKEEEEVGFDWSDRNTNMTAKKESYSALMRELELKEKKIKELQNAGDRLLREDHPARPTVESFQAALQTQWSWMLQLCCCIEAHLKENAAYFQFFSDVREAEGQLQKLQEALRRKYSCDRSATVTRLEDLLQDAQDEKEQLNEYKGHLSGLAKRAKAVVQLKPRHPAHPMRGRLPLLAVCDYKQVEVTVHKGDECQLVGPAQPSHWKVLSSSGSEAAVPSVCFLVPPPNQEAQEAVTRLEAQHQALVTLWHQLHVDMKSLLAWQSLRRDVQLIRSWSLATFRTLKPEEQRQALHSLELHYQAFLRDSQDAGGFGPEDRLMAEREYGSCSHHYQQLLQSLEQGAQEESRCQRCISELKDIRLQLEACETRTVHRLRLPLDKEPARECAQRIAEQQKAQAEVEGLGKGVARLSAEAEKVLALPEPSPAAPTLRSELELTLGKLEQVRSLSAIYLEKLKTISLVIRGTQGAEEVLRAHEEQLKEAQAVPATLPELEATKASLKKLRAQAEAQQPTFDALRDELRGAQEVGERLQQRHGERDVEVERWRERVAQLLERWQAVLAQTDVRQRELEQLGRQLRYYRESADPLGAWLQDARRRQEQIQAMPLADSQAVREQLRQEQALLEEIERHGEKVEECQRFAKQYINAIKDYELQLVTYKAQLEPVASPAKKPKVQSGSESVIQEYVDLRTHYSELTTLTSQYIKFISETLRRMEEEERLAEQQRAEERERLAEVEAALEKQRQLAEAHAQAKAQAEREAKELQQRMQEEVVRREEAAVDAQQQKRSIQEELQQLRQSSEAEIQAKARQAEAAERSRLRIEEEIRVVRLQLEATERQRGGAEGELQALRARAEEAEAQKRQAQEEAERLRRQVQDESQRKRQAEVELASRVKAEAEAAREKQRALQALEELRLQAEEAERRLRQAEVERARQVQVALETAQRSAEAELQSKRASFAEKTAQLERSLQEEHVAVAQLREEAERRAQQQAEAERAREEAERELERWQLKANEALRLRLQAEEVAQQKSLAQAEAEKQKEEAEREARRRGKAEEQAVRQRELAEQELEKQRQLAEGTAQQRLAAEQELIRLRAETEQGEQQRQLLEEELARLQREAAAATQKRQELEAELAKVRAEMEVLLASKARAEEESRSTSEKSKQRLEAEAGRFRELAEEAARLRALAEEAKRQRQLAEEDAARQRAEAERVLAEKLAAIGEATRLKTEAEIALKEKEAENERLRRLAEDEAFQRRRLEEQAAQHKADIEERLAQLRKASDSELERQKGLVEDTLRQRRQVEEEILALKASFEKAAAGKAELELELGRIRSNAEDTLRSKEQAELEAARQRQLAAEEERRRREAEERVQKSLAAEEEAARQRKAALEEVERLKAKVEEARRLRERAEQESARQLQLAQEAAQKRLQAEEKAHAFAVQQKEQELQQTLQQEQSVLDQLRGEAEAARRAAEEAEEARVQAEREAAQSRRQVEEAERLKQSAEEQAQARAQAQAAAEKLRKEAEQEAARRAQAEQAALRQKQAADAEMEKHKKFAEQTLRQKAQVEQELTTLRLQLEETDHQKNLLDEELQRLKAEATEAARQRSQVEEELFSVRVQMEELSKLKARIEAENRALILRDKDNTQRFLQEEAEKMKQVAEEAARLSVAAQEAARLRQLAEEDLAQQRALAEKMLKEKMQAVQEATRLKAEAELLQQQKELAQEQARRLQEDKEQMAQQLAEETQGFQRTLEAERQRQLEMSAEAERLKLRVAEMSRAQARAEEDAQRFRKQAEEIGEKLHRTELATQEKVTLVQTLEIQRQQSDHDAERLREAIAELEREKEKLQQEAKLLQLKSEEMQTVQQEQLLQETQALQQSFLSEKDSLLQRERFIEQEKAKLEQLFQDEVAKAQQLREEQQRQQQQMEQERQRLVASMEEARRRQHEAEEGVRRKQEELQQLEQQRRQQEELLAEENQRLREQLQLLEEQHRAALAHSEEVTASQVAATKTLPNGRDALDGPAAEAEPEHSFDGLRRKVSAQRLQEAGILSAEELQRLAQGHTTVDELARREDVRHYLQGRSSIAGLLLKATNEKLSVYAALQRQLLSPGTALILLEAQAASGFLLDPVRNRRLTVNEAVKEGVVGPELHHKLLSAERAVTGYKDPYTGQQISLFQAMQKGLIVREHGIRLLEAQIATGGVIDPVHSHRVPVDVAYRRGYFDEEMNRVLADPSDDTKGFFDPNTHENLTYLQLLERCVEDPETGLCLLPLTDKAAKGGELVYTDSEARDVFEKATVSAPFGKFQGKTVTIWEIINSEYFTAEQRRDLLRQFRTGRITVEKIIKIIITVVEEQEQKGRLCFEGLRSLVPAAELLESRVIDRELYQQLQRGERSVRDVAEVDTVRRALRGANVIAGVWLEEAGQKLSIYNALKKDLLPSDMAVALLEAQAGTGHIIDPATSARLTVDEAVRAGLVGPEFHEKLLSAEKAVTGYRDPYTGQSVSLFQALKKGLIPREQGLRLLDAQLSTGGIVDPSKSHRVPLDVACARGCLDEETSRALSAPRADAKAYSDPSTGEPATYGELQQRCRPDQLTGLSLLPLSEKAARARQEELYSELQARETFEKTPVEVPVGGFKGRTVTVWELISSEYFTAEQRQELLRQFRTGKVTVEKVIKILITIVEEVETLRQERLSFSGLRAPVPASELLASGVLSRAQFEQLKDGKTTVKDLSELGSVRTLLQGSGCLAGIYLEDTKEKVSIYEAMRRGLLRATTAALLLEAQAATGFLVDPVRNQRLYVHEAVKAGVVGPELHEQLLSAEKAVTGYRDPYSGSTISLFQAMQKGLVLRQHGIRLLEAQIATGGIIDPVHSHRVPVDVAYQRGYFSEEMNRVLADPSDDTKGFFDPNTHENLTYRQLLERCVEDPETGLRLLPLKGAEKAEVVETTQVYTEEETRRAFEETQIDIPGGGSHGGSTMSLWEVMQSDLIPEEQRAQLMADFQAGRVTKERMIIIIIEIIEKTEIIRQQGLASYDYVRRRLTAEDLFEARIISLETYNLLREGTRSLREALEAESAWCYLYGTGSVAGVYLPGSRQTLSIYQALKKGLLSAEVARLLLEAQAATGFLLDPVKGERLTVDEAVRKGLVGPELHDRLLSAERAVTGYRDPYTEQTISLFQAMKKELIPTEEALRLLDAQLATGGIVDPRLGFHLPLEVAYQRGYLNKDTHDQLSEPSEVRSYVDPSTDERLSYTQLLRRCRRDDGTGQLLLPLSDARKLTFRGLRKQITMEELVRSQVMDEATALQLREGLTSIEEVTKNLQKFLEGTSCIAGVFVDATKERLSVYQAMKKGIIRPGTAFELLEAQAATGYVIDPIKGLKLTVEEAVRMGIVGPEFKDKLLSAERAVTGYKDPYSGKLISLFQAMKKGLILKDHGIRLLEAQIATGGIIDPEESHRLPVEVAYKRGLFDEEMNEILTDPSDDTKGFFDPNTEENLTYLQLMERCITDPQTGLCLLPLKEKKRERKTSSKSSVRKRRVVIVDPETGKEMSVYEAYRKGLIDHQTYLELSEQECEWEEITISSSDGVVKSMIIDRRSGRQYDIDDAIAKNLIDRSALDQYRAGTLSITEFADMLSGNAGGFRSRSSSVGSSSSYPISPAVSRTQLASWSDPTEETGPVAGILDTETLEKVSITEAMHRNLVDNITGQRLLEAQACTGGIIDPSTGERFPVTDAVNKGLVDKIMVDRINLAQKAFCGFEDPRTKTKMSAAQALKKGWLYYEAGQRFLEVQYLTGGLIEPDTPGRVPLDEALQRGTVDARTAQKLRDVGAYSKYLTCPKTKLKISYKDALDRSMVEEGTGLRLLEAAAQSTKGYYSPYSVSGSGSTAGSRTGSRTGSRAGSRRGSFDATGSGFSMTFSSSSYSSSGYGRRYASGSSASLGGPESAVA

isoTOP-ABPP reactivity Q6ICB0_C108 DESII ([1]; 200 μM, insitu): 20.0 | isoTOP-ABPP reactivity Q9UJW0_C258 DCTN4 ([2]; 200 μM, insitu, 231): 4.0 | isoTOP-ABPP reactivity Q96P48_C900 ARAP1 [3]: 5.5 | isoTOP-ABPP reactivity P24468_C326 NR2F2 ([4]; 200 μM, insitu, 231): 20.0 | isoTOP-ABPP reactivity Q13158_C98 FADD [5]: 20.0
Compound: COc1ccc2c(c1)CCCN2C(=O)CCl [compound 2]

isoTOP-ABPP reactivity Q6ICB0_C108 DESII ([1]; 200 μM, insitu): 20.0 | isoTOP-ABPP reactivity Q9UJW0_C258 DCTN4 ([2]; 200 μM, insitu, 231): 20.0 | isoTOP-ABPP reactivity P24468_C326 NR2F2 ([4]; 200 μM, insitu, 231): 20.0 | isoTOP-ABPP reactivity Q9Y6G9_C51 DYNC1LI1 ([7]; 200 μM, insitu, 231): 4.1 | isoTOP-ABPP reactivity P45984_C177 MAPK9 ([9]; 200 μM, insitu, 231): 20.0
Compound: COc1cc2c(cc1OC)CN(C(=O)CCl)CC2 [compound 8]

isoTOP-ABPP reactivity Q15149_C4574 PLEC ([8]; 200 μM, insitu, 231): 0.8
Compound: O=C(CCl)N1CCC(Cc2ccccc2)CC1 [compound 9]

The remaining lines, values behind:

Compound: COc1ccc(C2CC(c3cccs3)=NN2C(=O)CCl)cc1 (centres unmarked) [compound 4]
isoTOP-ABPP reactivity P35754_C23 GLRX ([6]; 100 μM in situ 231): 20.0 | isoTOP-ABPP reactivity P24468_C326 NR2F2 ([4]; 100 μM in situ 231): 20.0 | isoTOP-ABPP reactivity Q9Y6G9_C51 DYNC1LI1 ([7]; 100 μM in situ 231): 3.5 | isoTOP-ABPP reactivity Q15149_C4574 PLEC ([8]; 100 μM in situ 231): 4.2 | isoTOP-ABPP reactivity P45984_C177 MAPK9 ([9]; 100 μM in situ 231): 12.0

Compound: O=C(CCl)N1CCN(S(=O)(=O)c2ccccc2F)CC1 [compound 10]
isoTOP-ABPP ratio, cysteine P52948_C1312 [10]: 20.0 | isoTOP-ABPP ratio P35754_C23 ([6]; 200 μM, insitu, ramos): 13.0 | isoTOP-ABPP ratio Q9UJW0_C258 ([2]; 200 μM, insitu, 231): 20.0 | isoTOP-ABPP ratio Q9UJW0_C258 ([2]; 200 μM, insitu, ramos): 20.0 | isoTOP-ABPP ratio, cysteine Q96P48_C900 [3]: 1.8 | isoTOP-ABPP ratio, cysteine P24468_C326 ([4]; 200 μM, insitu, 231): 20.0 | isoTOP-ABPP ratio Q9Y6G9_C51 ([7]; 200 μM, insitu, 231): 4.9 | isoTOP-ABPP ratio, cysteine Q15149_C4574 ([8]; 200 μM, insitu, 231): 2.2 | isoTOP-ABPP ratio P45984_C177 ([9]; 200 μM, insitu, 231): 20.0

Compound: Cn1cc(S(=O)(=O)N2CCOCC2)cc1C(=O)NC(=O)CCl [compound 11]
isoTOP-ABPP ratio Q6ICB0_C108 ([1]; 100 μM in situ 231): 0.7 | isoTOP-ABPP ratio P35754_C23 ([6]; 100 μM in situ 231): 20.0 | isoTOP-ABPP ratio Q9UJW0_C258 ([2]; 100 μM in situ 231): 20.0 | isoTOP-ABPP ratio, cysteine P24468_C326 ([4]; 100 μM in situ 231): 0.9 | isoTOP-ABPP ratio, cysteine Q15149_C4574 ([8]; 100 μM in situ 231): 1.1 | isoTOP-ABPP ratio P45984_C177 ([9]; 100 μM in situ 231): 0.9

Compound: O=C(CCl)NC(=O)NC12CC3CC(CC(C3)C1)C2 [compound 12]
isoTOP-ABPP ratio, cysteine P52948_C1312 [10]: 20.0 | isoTOP-ABPP ratio P35754_C23 ([6]; 200 μM, insitu, 231): 20.0 | isoTOP-ABPP ratio Q9UJW0_C258 ([2]; 200 μM, insitu, 231): 20.0 | isoTOP-ABPP ratio, cysteine Q96P48_C900 [3]: 1.9 | isoTOP-ABPP ratio Q9Y6G9_C51 ([7]; 200 μM, insitu, 231): 6.5 | isoTOP-ABPP ratio P45984_C177 ([9]; 200 μM, insitu, 231): 2.1

Compound: O=C(CCl)NCCc1c[nH]c2ccccc12 [compound 13]
isoTOP-ABPP ratio, cysteine P52948_C1312 [10]: 1.2 | isoTOP-ABPP ratio Q6ICB0_C108 ([1]; 200 μM, insitu, ramos): 4.0 | isoTOP-ABPP ratio Q9UJW0_C258 ([2]; 200 μM, insitu, ramos): 1.9 | isoTOP-ABPP ratio, cysteine Q96P48_C900 [3]: 1.2 | isoTOP-ABPP ratio, cysteine Q13158_C98 [5]: 1.6 | isoTOP-ABPP ratio Q9Y6G9_C51 ([7]; 200 μM, insitu, ramos): 1.5 | isoTOP-ABPP ratio, cysteine Q15149_C4574 ([8]; 200 μM, insitu, 231): 1.4
